From ChEMBL document CHEMBL1671626, “In vitro profiling of ceftaroline against a collection of recent bacterial clinical isolates from across the United States” (2008)
≈ marks a conversion by molar mass, not a printed value.

Key:
Format in all cases: functional
[1] = system: Staphylococcus aureus; assay: Antibacterial activity against methicillin-susceptible Staphylococcus aureus by CLSI M7-A7 broth microdilution method
[2] = system: Staphylococcus aureus; assay: Antibacterial activity against coagulase-negative and oxacillin-resistant Staphylococcus aureus by CLSI M7-A7 broth microdilution method
[3] = system: Streptococcus pneumoniae; assay: Antibacterial activity against penicillin-susceptible Streptococcus pneumoniae assessed as susceptible isolates by CLSI M7-A7 broth microdilution method
[4] = system: Streptococcus pneumoniae; assay: Antibacterial activity against penicillin-susceptible Streptococcus pneumoniae assessed as resistant isolates by CLSI M7-A7 broth microdilution method
[5] = system: Streptococcus pneumoniae; assay: Antibacterial activity against penicillin-resistant Streptococcus pneumoniae by CLSI M7-A7 broth microdilution method
[6] = system: Streptococcus pyogenes; assay: Antibacterial activity against erythromycin-susceptible Streptococcus pyogenes by CLSI M7-A7 broth microdilution method
[7] = system: Streptococcus pyogenes; assay: Antibacterial activity against erythromycin-susceptible Streptococcus pyogenes assessed as susceptible isolates by CLSI M7-A7 broth microdilution method
[8] = system: Streptococcus pyogenes; assay: Antibacterial activity against erythromycin-nonsusceptible Streptococcus pyogenes assessed as susceptible isolates by CLSI M7-A7 broth microdilution method
[9] = system: Streptococcus agalactiae; assay: Antibacterial activity against erythromycin-susceptible Streptococcus agalactiae assessed as susceptible isolates by CLSI M7-A7 broth microdilution method
[10] = system: Streptococcus agalactiae; assay: Antibacterial activity against erythromycin-susceptible Streptococcus agalactiae by CLSI M7-A7 broth microdilution method
[11] = system: Streptococcus agalactiae; assay: Antibacterial activity against erythromycin-nonsusceptible Streptococcus agalactiae assessed as susceptible isolates by CLSI M7-A7 broth microdilution method
[12] = system: Streptococcus agalactiae; assay: Antibacterial activity against erythromycin-nonsusceptible Streptococcus agalactiae by CLSI M7-A7 broth microdilution method
[13] = system: Streptococcus viridans; assay: Antibacterial activity against penicillin-susceptible Streptococcus viridans assessed as susceptible isolates by CLSI M7-A7 broth microdilution method
[14] = system: Streptococcus viridans; assay: Antibacterial activity against penicillin-susceptible Streptococcus viridans assessed as resistant isolates by CLSI M7-A7 broth microdilution method
[15] = system: Streptococcus viridans; assay: Antibacterial activity against penicillin-nonsusceptible Streptococcus viridans by CLSI M7-A7 broth microdilution method
[16] = system: Streptococcus viridans; assay: Antibacterial activity against penicillin-nonsusceptible Streptococcus viridans assessed as susceptible isolates by CLSI M7-A7 broth microdilution method
[17] = system: Enterococcus faecalis; assay: Antibacterial activity against vancomycin-susceptible Enterococcus faecalis by CLSI M7-A7 broth microdilution method
[18] = system: Enterococcus faecalis; assay: Antibacterial activity against vancomycin-resistant Enterococcus faecalis by CLSI M7-A7 broth microdilution method
[19] = system: Enterococcus faecium; assay: Antibacterial activity against vancomycin-resistant Enterococcus faecium by CLSI M7-A7 broth microdilution method
[20] = system: Enterobacteriaceae; assay: Antibacterial activity against ceftazidime-susceptible Enterobacteriaceae assessed as resistant isolates by CLSI M7-A7 broth microdilution method
[21] = system: Enterobacteriaceae; assay: Antibacterial activity against ceftazidime-nonsusceptible Enterobacteriaceae by CLSI M7-A7 broth microdilution method
[22] = system: Enterobacteriaceae; assay: Antibacterial activity against ceftazidime-nonsusceptible Enterobacteriaceae assessed as susceptible isolates by CLSI M7-A7 broth microdilution method
[23] = system: Citrobacter freundii; assay: Antibacterial activity against ceftazidime-susceptible Citrobacter freundii assessed as susceptible isolates by CLSI M7-A7 broth microdilution method
[24] = system: Citrobacter freundii; assay: Antibacterial activity against ceftazidime-susceptible Citrobacter freundii assessed as resistant isolates by CLSI M7-A7 broth microdilution method
[25] = system: Citrobacter freundii; assay: Antibacterial activity against ceftazidime-nonsusceptible Citrobacter freundii by CLSI M7-A7 broth microdilution method
[26] = system: Citrobacter freundii; assay: Antibacterial activity against ceftazidime-nonsusceptible Citrobacter freundii assessed as susceptible isolates by CLSI M7-A7 broth microdilution method
[27] = system: Citrobacter freundii; assay: Antibacterial activity against ceftazidime-nonsusceptible Citrobacter freundii assessed as resistant isolates by CLSI M7-A7 broth microdilution method
[28] = system: Enterobacter cloacae; assay: Antibacterial activity against ceftazidime-nonsusceptible Enterobacter cloacae assessed as susceptible isolates by CLSI M7-A7 broth microdilution method
[29] = system: Escherichia coli; assay: Antibacterial activity against ceftazidime-susceptible Escherichia coli by CLSI M7-A7 broth microdilution method
[30] = system: Escherichia coli; assay: Antibacterial activity against ceftazidime-nonsusceptible Escherichia coli assessed as resistant isolates by CLSI M7-A7 broth microdilution method
[31] = system: Klebsiella pneumoniae; assay: Antibacterial activity against ceftazidime-susceptible Klebsiella pneumoniae by CLSI M7-A7 broth microdilution method
[32] = system: Klebsiella pneumoniae; assay: Antibacterial activity against ceftazidime-susceptible Klebsiella pneumoniae assessed as susceptible isolates by CLSI M7-A7 broth microdilution method
[33] = system: Klebsiella pneumoniae; assay: Antibacterial activity against ceftazidime-susceptible Klebsiella pneumoniae assessed as resistant isolates by CLSI M7-A7 broth microdilution method
[34] = system: Klebsiella pneumoniae; assay: Antibacterial activity against ceftazidime-nonsusceptible Klebsiella pneumoniae by CLSI M7-A7 broth microdilution method
[35] = system: Klebsiella pneumoniae; assay: Antibacterial activity against ceftazidime-nonsusceptible Klebsiella pneumoniae assessed as resistant isolates by CLSI M7-A7 broth microdilution method
[36] = system: Morganella morganii; assay: Antibacterial activity against ceftazidime-susceptible Morganella morganii by CLSI M7-A7 broth microdilution method
[37] = system: Proteus mirabilis; assay: Antibacterial activity against ceftazidime-susceptible Proteus mirabilis by CLSI M7-A7 broth microdilution method
[38] = system: Proteus mirabilis; assay: Antibacterial activity against ceftazidime-susceptible Proteus mirabilis assessed as susceptible isolates by CLSI M7-A7 broth microdilution method
[39] = system: Serratia marcescens; assay: Antibacterial activity against ceftazidime-susceptible Serratia marcescens assessed as resistant isolates by CLSI M7-A7 broth microdilution method
[40] = system: Acinetobacter; assay: Antibacterial activity against multidrug-resistant Acinetobacter assessed as susceptible isolates by CLSI M7-A7 broth microdilution method
[41] = system: Acinetobacter; assay: Antibacterial activity against imipenem-susceptible Acinetobacter assessed as susceptible isolates by CLSI M7-A7 broth microdilution method
[42] = system: Haemophilus influenzae; assay: Antibacterial activity against beta lactamase-negative Haemophilus influenzae by CLSI M7-A7 broth microdilution method
[43] = system: Pasteurella multocida; assay: Antibacterial activity against Pasteurella multocida by CLSI M7-A7 broth microdilution method
[44] = system: Providencia sp.; assay: Antibacterial activity against ceftazidime-susceptible Providencia sp. by CLSI M7-A7 broth microdilution method

SMILES: CO/N=C(\C(=O)N[C@@H]1C(=O)N2C(C(=O)O)=C(CSc3nc(=O)c(O)nn3C)CS[C@H]12)c1csc(N)n1 [CEFTRIAXONE]
- MIC50 [1]: 2 µg/mL (≈ 3.61 µM)
- MIC90 [1]: 4 µg/mL (≈ 7.21 µM)
- MIC50 [2]: 16 µg/mL (≈ 28.9 µM)
- MIC90 [2]: > 32 µg/mL
- Activity [3]: 100%
- Activity [4]: 0%
- MIC50 [5]: 1 µg/mL (≈ 1.8 µM)
- MIC90 [5]: 2 µg/mL (≈ 3.61 µM)
- MIC [6]: ≤ 0.015 µg/mL
- MIC50 [6]: ≤ 0.015 µg/mL
- MIC90 [6]: 0.03 µg/mL (≈ 0.0541 µM)
- Activity [7]: 100%
- Activity [8]: 100%
- Activity [9]: 100%
- MIC50 [10]: 0.06 µg/mL (≈ 0.108 µM)
- MIC90 [10]: 0.12 µg/mL (≈ 0.216 µM)
- Activity [11]: 97.6%
- MIC50 [12]: 0.06 µg/mL (≈ 0.108 µM)
- MIC90 [12]: 0.12 µg/mL (≈ 0.216 µM)
- Activity [13]: 100%
- Activity [14]: 0%
- MIC50 [15]: 2 µg/mL (≈ 3.61 µM)
- MIC90 [15]: 8 µg/mL (≈ 14.4 µM)
- Activity [16]: 28.6%
- MIC50 [17]: > 32 µg/mL
- MIC90 [17]: > 32 µg/mL
- MIC [18]: > 1 µg/mL
- MIC [19]: > 32 µg/mL
- MIC50 [19]: > 32 µg/mL
- MIC90 [19]: > 32 µg/mL
- Activity [20]: 0%
- MIC50 [21]: > 16 µg/mL
- MIC90 [21]: > 16 µg/mL
- Activity [22]: 13.2%
- Activity [23]: 100%
- Activity [24]: 0%
- MIC50 [25]: > 16 µg/mL
- MIC90 [25]: > 16 µg/mL
- Activity [26]: 6.1%
- Activity [27]: 0%
- Activity [28]: 8.6%
- MIC50 [29]: ≤ 0.06 µg/mL
- MIC90 [29]: 0.12 µg/mL (≈ 0.216 µM)
- Activity [30]: 0%
- MIC [31]: ≤ 0.06 µg/mL
- MIC50 [31]: ≤ 0.06 µg/mL
- MIC90 [31]: 0.12 µg/mL (≈ 0.216 µM)
- Activity [32]: 99.5%
- Activity [33]: 0%
- MIC50 [34]: > 16 µg/mL
- MIC90 [34]: > 16 µg/mL
- Activity [35]: 0%
- MIC [36]: ≤ 0.06 µg/mL
- MIC50 [36]: ≤ 0.06 µg/mL
- MIC90 [36]: 1 µg/mL (≈ 1.8 µM)
- MIC50 [37]: ≤ 0.06 µg/mL
- MIC90 [37]: 0.12 µg/mL (≈ 0.216 µM)
- Activity [38]: 96.6%
- Activity [39]: 0%
- Activity [40]: 0%
- Activity [41]: 44.7%
- MIC [42]: ≤ 0.06 µg/mL
- MIC50 [42]: ≤ 0.06 µg/mL
- MIC90 [42]: ≤ 0.06 µg/mL
- MIC [43]: ≤ 0.015 µg/mL
- MIC50 [43]: ≤ 0.015 µg/mL
- MIC90 [43]: ≤ 0.015 µg/mL
- MIC [44]: ≤ 0.06 µg/mL
- MIC50 [44]: ≤ 0.06 µg/mL
- MIC90 [44]: 2 µg/mL (≈ 3.61 µM)

SMILES: C[C@@H](O)[C@H]1C(=O)N2C(C(=O)O)=C(SCCNC=N)C[C@H]12 [IMIPENEM ANHYDROUS]
- MIC [1]: ≤ 0.12 µg/mL
- MIC50 [1]: ≤ 0.12 µg/mL
- MIC90 [1]: ≤ 0.12 µg/mL
- MIC50 [2]: 0.5 µg/mL (≈ 1.67 µM)
- MIC90 [2]: 16 µg/mL (≈ 53.4 µM)
- Activity [3]: 96.5%
- Activity [4]: 0.5%
- MIC50 [5]: 0.25 µg/mL (≈ 0.835 µM)
- MIC90 [5]: 1 µg/mL (≈ 3.34 µM)
- MIC [6]: ≤ 0.015 µg/mL
- MIC50 [6]: ≤ 0.015 µg/mL
- MIC90 [6]: ≤ 0.015 µg/mL
- MIC [10]: ≤ 0.015 µg/mL
- MIC50 [10]: ≤ 0.015 µg/mL
- MIC90 [10]: 0.03 µg/mL (≈ 0.1 µM)
- MIC [12]: ≤ 0.015 µg/mL
- MIC50 [12]: ≤ 0.015 µg/mL
- MIC90 [12]: 0.03 µg/mL (≈ 0.1 µM)
- MIC50 [15]: 0.06 µg/mL (≈ 0.2 µM)
- MIC90 [15]: 1 µg/mL (≈ 3.34 µM)
- MIC50 [17]: 1 µg/mL (≈ 3.34 µM)
- MIC90 [17]: 2 µg/mL (≈ 6.68 µM)
- MIC50 [18]: 1 µg/mL (≈ 3.34 µM)
- MIC90 [18]: 2 µg/mL (≈ 6.68 µM)
- MIC [19]: > 16 µg/mL
- MIC50 [19]: > 16 µg/mL
- MIC90 [19]: > 16 µg/mL
- Activity [20]: 0%
- MIC50 [21]: 0.25 µg/mL (≈ 0.835 µM)
- MIC90 [21]: 4 µg/mL (≈ 13.4 µM)
- Activity [22]: 92.3%
- Activity [23]: 100%
- Activity [24]: 0%
- MIC50 [25]: 0.5 µg/mL (≈ 1.67 µM)
- MIC90 [25]: 1 µg/mL (≈ 3.34 µM)
- Activity [26]: 100%
- Activity [27]: 0%
- Activity [28]: 97.1%
- MIC50 [29]: 0.12 µg/mL (≈ 0.401 µM)
- MIC90 [29]: 0.25 µg/mL (≈ 0.835 µM)
- Activity [30]: 3.2%
- MIC [31]: 0.12 µg/mL (≈ 0.401 µM)
- MIC50 [31]: 0.12 µg/mL (≈ 0.401 µM)
- MIC90 [31]: 0.5 µg/mL (≈ 1.67 µM)
- Activity [32]: 100%
- Activity [33]: 0%
- MIC50 [34]: 0.12 µg/mL (≈ 0.401 µM)
- MIC90 [34]: 16 µg/mL (≈ 53.4 µM)
- Activity [35]: 10.6%
- MIC50 [36]: 2 µg/mL (≈ 6.68 µM)
- MIC90 [36]: 2 µg/mL (≈ 6.68 µM)
- MIC50 [37]: 2 µg/mL (≈ 6.68 µM)
- MIC90 [37]: 4 µg/mL (≈ 13.4 µM)
- Activity [38]: 100%
- Activity [39]: 0%
- Activity [40]: 68.8%
- Activity [41]: 100%
- MIC50 [42]: 0.25 µg/mL (≈ 0.835 µM)
- MIC90 [42]: 0.5 µg/mL (≈ 1.67 µM)
- MIC50 [43]: 0.25 µg/mL (≈ 0.835 µM)
- MIC90 [43]: 2 µg/mL (≈ 6.68 µM)
- MIC50 [44]: 1 µg/mL (≈ 3.34 µM)
- MIC90 [44]: 2 µg/mL (≈ 6.68 µM)
